What was measured:
[1] = system: TNF-α release from whole blood cultures stimulated with LPS; test: IC50 by TNF alpha production upon stimulation of whole blood cultures with LPS; format: cell-based; settings: human whole blood (buffy coat) culture, 100 ng/ml LPS, 4 hours; read-out: h TNFα IC50
Protocol: Compounds were assayed to generate IC50 numbers based on the inhibition of TNF-α release from whole blood cultures, using the following assay protocol (see Table 5 for compounds tested and results). Inhibition of PDE4B results in the inhibition of TNF-α release by whole blood cultures stimulated with lipopolysaccharide (LPS). The measurement of TNF-α release was used to assess compounds as PDE4B inhibitors.
Compounds were provided in DMSO at 20 mM and 2 μl per well was added to one row of a dilution plate. Added 98 μl of RPMI 1640 media with 2.5% heat inactivated FBS to each well containing compound. The same media with 2% DMSO was prepared and 60 μl was added to each of the empty wells in the dilution plate. The compound was serially diluted 1:3 (30 μl to 60 μl of media) for a total of 8 concentrations per compound. Wells were also prepared with 50 μM roflumilast and piclamilast as 100% inhibition controls, and 2% DMSO in media was used as 0% inhibition control. A 20 μl aliquot of each sample was transferred to an assay plate in duplicate.
Human buffy coat was obtained from the Stanford Medical School Blood Center and diluted with 7 volumes of RPMI 1640 media with 1% penicillin/streptomycin and 2.5% heat inactivated FBS. A 160 μl aliquot of the diluted blood was added to each well of the assay plates, mixed and incubated for 1 hour at 37° C. in 5% CO2. LPS (Sigma catalog number L2637) that had been diluted to 1 mg/ml in PBS and stored as 20 μl aliquots at −20° C. was thawed and diluted 1000× to 1 μg/ml. A 20 μl aliquot of this was added to each sample (final concentration 100 ng/ml LPS) after the 1 hour incubation. A background sample was prepared without addition of LPS as well. The samples were mixed on a shaker for one minute at 900 RPM and incubated for 4 hours at 37° C. in 5% CO2. The plates were then put on a shaker for one minute at 900 RPM, followed by centrifuging at 100×g for 10 minutes, deceleration setting of 5. The top 75 μl of supernatant was carefully pipetted to a new plate and frozen at −20° C.
A 50 μl aliquot of incubation buffer (Biosource International Immunoassay Kit:Human TNF-α catalog number KHC3011) was added to each well of a plate coated with monoclonal antibody specific for hTNF-α (Biosource kit). The supernatant blood samples were thawed and a 50 μl aliquot along with 50 μl of diluent buffer (Biosource kit) were added to incubation buffer and the samples were incubated for 2 hours at room temperature. The samples were washed 4 times with 300 μl/well wash buffer (Biosource kit). A 100 μl aliquot of biotinylated anti-TNFalpha (Biosource kit) was added and the samples incubated for 1 hour at room temperature. The samples were washed 4 times with 300 μl/well wash buffer. A 100 μl aliquot of Streptavidin-HRP solution (BioSource kit) was added and the samples incubated for 30 minutes at room temperature. The samples were washed 4 times with 300 μl/well wash buffer. A 100 μl aliquot of Chromagen (Biosource kit) was added and the samples incubated in the dark for 30 minutes. A 100 μl aliquot of stop solution (2N H2SO4) was added to each sample and samples were read at 450 nm on a WallacVictor for 0.1 sec/well.

[2] = target: T1, PDE4B2: full-length human PDE4B2 isozyme (Homo sapiens, UniProt Q07343); test: PDE4 IC50 determination by Scintillation Proximity Assay (SPA), full-length PDE4B2; format: biochemical; settings: cell lysate, [3H]cAMP SPA
T1 construct: made in house; host or cells: baculovirus infected insect cells (pFastBacHT)
Protocol: (§1) The enzyme was not purified from the cell lysates, so enzyme concentrations were not determined. Enzyme was stored in 50% glycerol at −20°.
(§2) IC50s were determined by Scintillation Proximity Assay (SPA). The principle of the assay is based on the fact that cAMP, the PDE4 substrate, binds weakly to Yittrium Silicate SPA beads, whereas AMP, the product of PDE4 hydrolysis binds strongly. Thus, the extent of PDE4 hydrolysis of a sample of [^3H]cAMP can be measured because only the [^3H]AMP produced by PDE4 hydrolysis will bind to the SPA beads and produce a scintillation signal.
(§3) In addition to the compound dilutions, each assay plate contained control wells with 1 μl of DMSO (to define 0% enzyme inhibition) or 1 μl of 200 μM roflumilast (to define 100% enzyme inhibition). Using a Beckman FX robot, 10 μl of [^3H] cAMP (Amersham TRK559) at […] in assay buffer (50 mM Tris, pH 7.5; 8.3 mM MgCl; 1.7 mM EGTA; 0.01% BSA) was transferred to each assay well. Next, 10 μl of PDE4 enzyme in assay buffer was added and the plates were shaken for 30 s. at 1000 rpm to start the cAMP hydrolysis reaction. The concentrations of enzyme used were: PDE4B, 80 ng/ml; PDE4D, 4 ng/ml; PDE4B2, 2.5 μl of 50% glycerol stock/ml; PDE4D5 0.083 μl of 50% glycerol stock/ml. Assay plates were covered and incubated for 30 min. at 30° C. Reactions were stopped by robotic addition of 10 μl of 5 mg/ml SPA beads (Amersham RPNQ0013) in 18 mM ZnSO4. The assay plates were covered with clear plastic film, centrifuged for 1 min. at 1000 RPM to settle the SPA beads, and counted using a Wallac TriLux scintillation counter. IC50's were calculated from the raw assay data by non-linear regression curve fitting using the Assay Explorer software package from MDL.

[3] = target: T2, PDE4D5: full-length human PDE4D5 isozyme (Homo sapiens, UniProt Q08499); test: PDE4 IC50 determination by Scintillation Proximity Assay (SPA), full-length PDE4D5; format: biochemical; settings: cell lysate, [3H]cAMP SPA
T2 construct: made in house; host or cells: baculovirus infected insect cells (pFastBacHT)
Protocol: as §1, §2, §3

T2 sequence (Q08499 with tags, fused parts or gaps isoform Q08499-6): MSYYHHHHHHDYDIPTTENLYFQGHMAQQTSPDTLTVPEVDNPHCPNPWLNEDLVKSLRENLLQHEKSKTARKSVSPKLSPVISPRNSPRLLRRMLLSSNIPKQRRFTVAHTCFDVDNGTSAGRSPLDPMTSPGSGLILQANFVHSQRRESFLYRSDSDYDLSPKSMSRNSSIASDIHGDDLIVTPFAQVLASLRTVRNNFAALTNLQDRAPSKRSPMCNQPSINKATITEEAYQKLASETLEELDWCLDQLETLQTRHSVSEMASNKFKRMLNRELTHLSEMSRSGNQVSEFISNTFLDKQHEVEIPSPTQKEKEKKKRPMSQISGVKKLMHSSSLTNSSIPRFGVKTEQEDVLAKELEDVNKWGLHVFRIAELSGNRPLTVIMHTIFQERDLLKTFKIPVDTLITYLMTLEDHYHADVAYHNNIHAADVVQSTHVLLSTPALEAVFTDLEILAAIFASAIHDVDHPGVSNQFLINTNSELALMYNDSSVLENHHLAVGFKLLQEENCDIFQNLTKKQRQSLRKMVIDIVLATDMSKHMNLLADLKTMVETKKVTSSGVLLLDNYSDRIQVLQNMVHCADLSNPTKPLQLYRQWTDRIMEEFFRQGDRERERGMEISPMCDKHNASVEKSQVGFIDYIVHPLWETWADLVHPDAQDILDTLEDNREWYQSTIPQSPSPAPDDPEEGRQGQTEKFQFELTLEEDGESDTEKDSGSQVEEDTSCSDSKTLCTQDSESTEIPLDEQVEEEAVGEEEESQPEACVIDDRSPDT
T1 sequence (Q07343 with tags, fused parts or gaps isoform Q07343-2): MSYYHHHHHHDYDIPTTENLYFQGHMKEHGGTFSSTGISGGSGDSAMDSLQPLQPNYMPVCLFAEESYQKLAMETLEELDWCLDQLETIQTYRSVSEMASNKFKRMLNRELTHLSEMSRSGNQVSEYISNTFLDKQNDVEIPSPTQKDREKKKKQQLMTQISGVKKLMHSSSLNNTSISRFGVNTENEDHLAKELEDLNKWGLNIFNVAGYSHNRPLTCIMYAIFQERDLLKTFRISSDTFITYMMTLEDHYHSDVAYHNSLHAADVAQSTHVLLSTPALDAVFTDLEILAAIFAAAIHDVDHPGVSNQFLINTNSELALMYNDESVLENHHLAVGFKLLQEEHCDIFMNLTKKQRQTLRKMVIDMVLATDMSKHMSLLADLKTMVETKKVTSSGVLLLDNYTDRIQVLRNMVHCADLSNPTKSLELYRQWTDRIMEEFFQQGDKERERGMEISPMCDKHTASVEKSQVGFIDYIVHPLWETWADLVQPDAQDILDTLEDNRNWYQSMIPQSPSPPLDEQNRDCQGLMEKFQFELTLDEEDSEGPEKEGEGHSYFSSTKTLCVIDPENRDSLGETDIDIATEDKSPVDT

Row | IC50 [1] | IC50 [2] | IC50 [3] | Structure (SMILES)
1 | ≤ 10 µM | < 10 µM | < 10 µM | CCOc1ccc2ccccc2c1C(=O)n1cc(-c2ccc(S(C)(=O)=O)cc2)c2cccnc21 [Compound 84, (2-Ethoxy-naphthalen-1-yl)-[3-(4-methanesulfonyl-phenyl)-pyrrolo[2,3-b]pyridin-1-yl]-methanone]
2 | ≤ 10 µM | < 10 µM | < 10 µM | CCOc1ccc2ccccc2c1C(=O)n1cc(-c2cccc(S(C)(=O)=O)c2)c2cccnc21 [Compound 86, (2-Ethoxy-naphthalen-1-yl)-[3-(3-methanesulfonyl-phenyl)-pyrrolo[2,3-b]pyridin-1-yl]-methanone]
3 | ≤ 10 µM | < 10 µM | < 10 µM | CCOc1ccc2ccccc2c1C(=O)n1cc(-c2cccc(C(=O)OCc3ccccc3)c2)c2cccnc21 [Compound 87, 3-[1-(2-Ethoxy-naphthalene-1-carbonyl)-1H-pyrrolo[2,3-b]pyridin-3-yl]-benzoic acid benzyl ester]
4 | ≤ 10 µM | < 10 µM | < 10 µM | COc1ccc2c(c1)c(-c1ccc(OC)c(OC)c1)cn2S(=O)(=O)c1cccc2cccnc12 [Compound 92, 8-[3-(3,4-Dimethoxy-phenyl)-5-methoxy-indole-1-sulfonyl]-quinoline]
5 | ≤ 10 µM | < 10 µM | < 10 µM | COc1ccc(-c2cn(S(=O)(=O)c3cccc4cccnc34)c3ccc(Cl)cc23)cc1OC [Compound 93, 8-[3-(3,4-Dimethoxy-phenyl)-5-chloro-indole-1-sulfonyl]-quinoline]
6 | ≤ 10 µM | < 10 µM | < 10 µM | COc1ccc(-c2cn(C(=O)c3ccc(C#N)cc3)c3ncccc23)cc1OC [Compound 106, 4-[3-(3,4-Dimethoxy-phenyl)-pyrrolo[2,3-b]pyridine-1-carbonyl]-benzonitrile]
7 | ≤ 10 µM | < 10 µM | < 10 µM | CCOc1ccc2ccccc2c1C(=O)n1cc(-c2ccc(OC)c(OC3CCCC3)c2)c2cccnc21 [Compound 119, [3-(3-Cyclopentyloxy-4-methoxy-phenyl)-pyrrolo[2,3-b]pyridin-1-yl]-(2-ethoxy-naphthalen-1-yl)-methanone]
8 | ≤ 10 µM | < 10 µM | < 10 µM | CCOc1ccc2ccccc2c1C(=O)n1cc(-c2cccc(C(N)=O)c2)c2cccnc21 [Compound 121, 3-[1-(2-Ethoxy-naphthalene-1-carbonyl)-1H-pyrrolo[2,3-b]pyridin-3-yl]-benzamide]
9 | ≤ 10 µM | < 10 µM | < 10 µM | CCOc1ccc2ccccc2c1C(=O)n1cc(-c2cccc(NS(C)(=O)=O)c2)c2cccnc21 [Compound 122, N-{3-[1-(2-Ethoxy-naphthalene-1-carbonyl)-1H-pyrrolo[2,3-b]pyridin-3-yl]-phenyl}-methanesulfonamide]
10 | ≤ 10 µM | < 10 µM | < 10 µM | COc1ccc(-c2cccc3[nH]ccc23)cc1OC [Compound 128, 4-(3,4-Dimethoxy-phenyl)-1H-indole]
11 | ≤ 10 µM | < 10 µM | < 10 µM | COc1ccc(-c2ccc3[nH]ccc3c2)cc1OC [Compound 129, 5-(3,4-Dimethoxy-phenyl)-1H-indole]
12 | ≤ 10 µM | < 10 µM | < 10 µM | COc1ccc(-c2ccc3c(ccn3S(=O)(=O)c3cccc4cccnc34)c2)cc1OC [Compound 130, 8-[5-(3,4-Dimethoxy-phenyl)-indole-1-sulfonyl]-quinoline]
13 | ≤ 10 µM | < 10 µM | < 10 µM | COc1ccc(-c2cccc3c2ccn3S(=O)(=O)c2cccc3cccnc23)cc1OC [Compound 131, 8-[4-(3,4-Dimethoxy-phenyl)-indole-1-sulfonyl]-quinoline]
14 | ≤ 10 µM | < 10 µM | < 10 µM | COc1ccc(-c2cnc3c(ccn3S(=O)(=O)c3ccccc3)c2)cc1OC [Compound 132, 1-Benzenesulfonyl-5-(3,4-dimethoxy-phenyl)-1H-pyrrolo[2,3-b]pyridine]

— patent US7605168B2 (Plexxikon, Inc., priority 2004, dated 2009)
